Among the data in PubChem BioAssay (NCI) are GI50 and TGI values, retold here.

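Exposure lasted 48 hours, with cells grown in 96-well plates and compounds tested at five concentrations. Abbreviation: GI50, concentration required for 50% inhibition of growth. The concentration for full growth arrest is given as TGI.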 A value given as a limit tells only on which side of the number the result lay.

Test systems include OVCAR-5 ovarian; NCI-H460 lung; NCI/ADR-RES ovarian; T-47D breast; NCI-H226 lung; MALME-3M melanoma; PC-3 prostate; A498 renal; HS 578T breast; RXF 393 renal.
Holding throughout (test): inhibition of tumour cell growth, NCI panel, 48 h

Consider `CSC1=C(N)C(=O)c2[nH]cc(CO)c2C1=N`, for which the GI50 in the assay with OVCAR-5 ovarian was 0.176 µM; in the assay with NCI-H460 lung it was 0.154 µM; with NCI/ADR-RES ovarian, 0.239 µM; in the assay on T-47D breast, 0.264 µM; in the assay on NCI-H226 lung it was 0.206 µM; in the assay on MALME-3M melanoma it was 0.0714 µM. Further, the GI50 in the assay with PC-3 prostate is 0.212 µM; in the assay on A498 renal, 0.132 µM; in the assay on HS 578T breast, 0.282 µM; in the assay on RXF 393 renal, 0.281 µM. The TGI in the assay on OVCAR-5 ovarian came out at 0.326 µM; with NCI-H460 lung it was 0.338 µM; in the assay on NCI/ADR-RES ovarian it was 0.781 µM; in the assay with T-47D breast it was 0.644 µM; in the assay on NCI-H226 lung, 0.45 µM; with MALME-3M melanoma, 0.192 µM. Also, the TGI in the assay with PC-3 prostate turned out to be 0.916 µM; in the assay with A498 renal, 0.269 µM; with HS 578T breast, 0.796 µM; in the assay with RXF 393 renal, 0.85 µM.

On to `O=c1cnn(C2OC(CO)C(O)C2O)c(=S)[nH]1` (stereo unspecified), for which the TGI in the assay on OVCAR-5 ovarian is over 100 µM; in the assay with NCI-H460 lung it was over 41.7 µM; in the assay on NCI/ADR-RES ovarian it was over 100 µM; in the assay on T-47D breast, over 100 µM; in the assay with NCI-H226 lung it was over 100 µM; with MALME-3M melanoma it was over 100 µM. The TGI with PC-3 prostate, with A498 renal, with HS 578T breast and with RXF 393 renal was over 100 µM throughout.

On to `CC1=C(c2cccc(O)c2)[C@H](c2ccc(OCCN3CC(CF)C3)cc2)Oc2ccc(O)cc21`, for which the GI50 was 12.4 µM in the assay on OVCAR-5 ovarian; 4.94 µM in the assay with NCI-H460 lung; 15 µM with NCI/ADR-RES ovarian; 0.0747 µM in the assay with T-47D breast; 10.7 µM with NCI-H226 lung; 3.23 µM in the assay with MALME-3M melanoma. Besides, the GI50 in the assay on PC-3 prostate is 5.8 µM; in the assay with A498 renal, 1.68 µM; in the assay with HS 578T breast, 5.12 µM; with RXF 393 renal it was 3.46 µM. Moreover, the TGI in the assay on OVCAR-5 ovarian was 25 µM; in the assay with NCI-H460 lung, 18.2 µM; with NCI/ADR-RES ovarian, 31 µM; with T-47D breast, 19.9 µM; in the assay on NCI-H226 lung, 28.2 µM; with MALME-3M melanoma it was 13.3 µM. Moreover, the TGI in the assay with PC-3 prostate worked out at 20.9 µM; in the assay with A498 renal, 9.66 µM; in the assay on HS 578T breast, 26.4 µM; in the assay with RXF 393 renal, 12.1 µM.

As for `COC1CC(O[C@H]2CC[C@@]3(C)[C@H](CC[C@@H]4[C@@H]3CC[C@]3(C)[C@@H](C5=CC(=O)OC5)[C@@H](OC(C)=O)C[C@]43O)C2)OC(C)C1O` (stereo partly specified), the GI50 with OVCAR-5 ovarian, with NCI-H460 lung, in the assay with NCI/ADR-RES ovarian, with T-47D breast, in the assay with NCI-H226 lung and in the assay on MALME-3M melanoma was under 0.01 µM throughout. For the same molecule, the GI50 with PC-3 prostate, in the assay on A498 renal, in the assay with HS 578T breast and in the assay on RXF 393 renal was under 0.01 µM each time. Also, the TGI in the assay on OVCAR-5 ovarian, in the assay with NCI-H460 lung, with NCI/ADR-RES ovarian, with T-47D breast, with NCI-H226 lung and with MALME-3M melanoma was under 0.01 µM in each case. Also, the TGI in the assay on PC-3 prostate was under 0.01 µM; in the assay with A498 renal it was under 0.0137 µM; in the assay with HS 578T breast, under 0.0145 µM; with RXF 393 renal, under 0.01 µM.

As to `N#C/C(=C\c1ccsc1)c1nc2ccccc2o1`, the GI50 in the assay with OVCAR-5 ovarian is over 100 µM; in the assay on NCI-H460 lung, over 100 µM; in the assay on NCI/ADR-RES ovarian, over 100 µM; with T-47D breast, 44.7 µM; in the assay on NCI-H226 lung it was over 100 µM; with MALME-3M melanoma it was 45.2 µM. Besides, the GI50 in the assay with PC-3 prostate was over 100 µM; in the assay with A498 renal, 33.6 µM; in the assay on HS 578T breast, 26 µM; in the assay with RXF 393 renal, 39.8 µM. Moreover, the TGI with OVCAR-5 ovarian, in the assay on NCI-H460 lung, in the assay on NCI/ADR-RES ovarian, in the assay on T-47D breast, in the assay on NCI-H226 lung and in the assay on MALME-3M melanoma was over 100 µM throughout. In addition, the TGI in the assay on PC-3 prostate is over 100 µM; with A498 renal, over 100 µM; with HS 578T breast, 92.9 µM; with RXF 393 renal it was over 100 µM.

Regarding `C#CC#CC#CC#CC#CC#CC#CC#CCC1OCC(COC(=O)O[C@@H](C(=O)O[C@H]2C[C@@]3(O)[C@@H](OC(=O)c4ccccc4)[C@@H]4[C@]5(OC(C)=O)CO[C@@H]5C[C@H](O)[C@@]4(C)C(=O)[C@H](OC(C)=O)C(=C2C)C3(C)C)[C@@H](NC(=O)c2ccccc2)c2ccccc2)O1` (stereo partly specified), the GI50 was 0.25 µM in the assay with OVCAR-5 ovarian; 0.0426 µM with NCI-H460 lung; over 33.3 µM in the assay on NCI/ADR-RES ovarian; 0.205 µM with T-47D breast; 2.22 µM in the assay with NCI-H226 lung; 0.28 µM in the assay with MALME-3M melanoma. Further, the GI50 with PC-3 prostate is 0.268 µM; with A498 renal, 0.191 µM; in the assay with HS 578T breast, 0.108 µM; with RXF 393 renal, 0.599 µM. Further, the TGI in the assay with OVCAR-5 ovarian, in the assay on NCI-H460 lung, with NCI/ADR-RES ovarian, with T-47D breast, with NCI-H226 lung and in the assay with MALME-3M melanoma was over 33.3 µM each time. The TGI in the assay on PC-3 prostate is over 33.3 µM; in the assay on RXF 393 renal, over 8.96 µM.

As to `COc1ccc2c(c1)NC1=C(C(=O)OC1)C2c1cc(OC)c2c(c1)OCO2` (stereo unspecified), the GI50 in the assay with OVCAR-5 ovarian was 0.0817 µM; in the assay with NCI-H460 lung, 0.0274 µM; with NCI/ADR-RES ovarian it was under 0.0165 µM; in the assay on T-47D breast it was over 100 µM; in the assay on NCI-H226 lung, under 0.0153 µM; with MALME-3M melanoma it was over 100 µM. Moreover, the GI50 in the assay with PC-3 prostate is 0.028 µM; in the assay on A498 renal, under 0.0146 µM; in the assay on HS 578T breast, under 0.0189 µM; in the assay with RXF 393 renal it was under 0.0167 µM. Besides, the TGI was over 100 µM in the assay on OVCAR-5 ovarian; over 100 µM in the assay with NCI-H460 lung; over 100 µM with T-47D breast; over 100 µM with MALME-3M melanoma; over 100 µM in the assay on PC-3 prostate; 0.0437 µM with A498 renal. Besides, the TGI is over 100 µM in the assay with HS 578T breast and over 72.4 µM in the assay with RXF 393 renal.

As to `C/C(=N/NC(=S)N1CCCCC1)c1ccccc1O`, the TGI in the assay on OVCAR-5 ovarian, in the assay on NCI-H460 lung, in the assay with NCI/ADR-RES ovarian, in the assay on T-47D breast, with NCI-H226 lung and in the assay with MALME-3M melanoma was over 31.6 µM each time. The TGI in the assay on PC-3 prostate is over 31.6 µM; in the assay with A498 renal, over 100 µM; in the assay with HS 578T breast it was over 31.6 µM; with RXF 393 renal it was over 31.6 µM.

As to `Cc1cc(NC(=O)NC(=O)c2ccccc2NC(=O)C(C)N)ccc1Oc1ncc(Br)cn1` (stereo unspecified), the TGI with OVCAR-5 ovarian amounted to 25.1 µM; with NCI-H460 lung, 19.2 µM; in the assay on NCI/ADR-RES ovarian, 15.9 µM; with T-47D breast, 29.6 µM; in the assay on NCI-H226 lung it was 2.88 µM; with MALME-3M melanoma, 33.4 µM. Also, the TGI is 15.2 µM in the assay on PC-3 prostate, 0.529 µM with A498 renal, 1.49 µM in the assay on HS 578T breast and 0.776 µM with RXF 393 renal.
